From ChEMBL document CHEMBL1201862, “PubChem BioAssay data set” (2004)
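In this assay, cells in 96-well plates receive the compound at five concentrations for 48 hours. Endpoints are linearly interpolated between the surrounding concentrations. At the GI50, growth is halved.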 Calls of active or inactive are those of the source. Cut-off read from the data, not from the text of the source: active = GI50 up to about 1.1 µM and inactive = higher.

Legend:
Assay in all cases: NCI-60 cell line screen, 48 h
[1] = system: SN12C
[2] = system: NCI-H522
[3] = system: SK-OV-3
[4] = system: COLO 205
[5] = system: U-251
[6] = system: HOP-62
[7] = system: SR
[8] = system: DMS-273
[9] = system: CAKI-1
[10] = system: 786-0
[11] = system: EKVX
[12] = system: HCT-116
[13] = system: K562
[14] = system: HT-29
[15] = system: SNB-75
[16] = system: TK-10
[17] = system: SF-268
[18] = system: MDA-N
[19] = system: MDA-MB-231
[20] = system: PC-3

Measured: GI50

CCOc1ccc(OP2(=O)NC(=O)C=C(C)N2)cc1 (stereo not given)
inactive: [1] > 100 µM | [2] > 100 µM | [3] > 100 µM | [4] > 100 µM | [5] > 100 µM | [6] > 100 µM | [7] 48.4 µM | [8] > 100 µM | [9] > 100 µM | [10] 92.9 µM | [11] > 100 µM | [12] > 100 µM | [13] > 100 µM | [14] > 100 µM | [15] > 100 µM | [16] > 100 µM | [17] > 100 µM

CCOc1nc(OCC)nc(-c2cccn2-c2ccccc2)n1
inactive: [1] 45.6 µM | [2] 32.7 µM | [3] 33 µM | [5] 18.5 µM | [6] 46.1 µM | [7] 26.3 µM | [8] 30.1 µM | [9] 30.5 µM | [10] 45.1 µM | [11] 38.2 µM | [12] 37.3 µM | [13] 30.5 µM | [14] 34.6 µM | [16] 23 µM | [17] 46.5 µM

O=C(c1ccncc1)n1nc(-c2ccccc2)c(/N=N/c2ccc([N+](=O)[O-])cc2)c1-c1ccccc1
inactive: [1] > 100 µM | [2] 66.7 µM | [3] 94.8 µM | [4] 79.8 µM | [6] 39.4 µM | [7] 45.3 µM | [8] > 100 µM | [9] 78.5 µM | [10] > 100 µM | [11] 3.27 µM | [12] 73.6 µM | [13] 54.7 µM | [14] 38.7 µM | [15] 12.6 µM | [16] 57.8 µM | [17] 49.5 µM

COc1ccc(-c2c(C3=NCCCN3)nnn2-c2ccccc2)cc1
inactive: [1] > 100 µM | [2] > 100 µM | [3] > 100 µM | [4] > 100 µM | [5] > 100 µM | [6] > 100 µM | [7] > 100 µM | [8] > 100 µM | [9] > 100 µM | [10] > 100 µM | [11] > 100 µM | [12] > 100 µM | [13] > 100 µM | [14] > 100 µM | [15] 47.4 µM | [16] > 100 µM | [17] > 100 µM

COc1ccc2c([nH]c3cc(O)c(C)cc32)c1C=O
inactive: [1] > 25 µM | [2] 20 µM | [3] > 25 µM | [4] > 25 µM | [5] > 25 µM | [6] > 25 µM | [7] 18.9 µM | [8] > 25 µM | [10] > 25 µM | [12] > 25 µM | [13] 14.6 µM | [14] > 25 µM | [16] > 25 µM | [17] > 25 µM

CC1C=CC(C(N)C(=O)O)O1 (stereo not given)
inactive: [1] > 100 µM | [2] > 100 µM | [3] > 100 µM | [4] > 100 µM | [5] > 100 µM | [6] > 100 µM | [7] > 100 µM | [8] > 100 µM | [9] > 100 µM | [10] > 100 µM | [11] > 100 µM | [12] > 100 µM | [13] 51.3 µM | [14] > 100 µM | [15] > 100 µM | [17] > 100 µM

C[Si](C)(C)/C=C/CN1C(=O)CCC1O (stereo not given)
inactive: [1] > 100 µM | [2] > 100 µM | [3] > 100 µM | [4] > 100 µM | [5] > 100 µM | [6] > 100 µM | [7] > 100 µM | [8] > 100 µM | [9] > 100 µM | [10] > 100 µM | [11] > 100 µM | [12] > 100 µM | [13] > 100 µM | [14] > 100 µM | [15] > 100 µM | [16] > 100 µM | [17] > 100 µM

Nc1ccc2nc(Nc3ccc(Cl)c(Cl)c3)cnc2c1
inactive: [1] 14.9 µM | [2] 6.37 µM | [4] 19.4 µM | [5] 19.4 µM | [6] 18.9 µM | [7] 2.44 µM | [8] 18.2 µM | [9] 28.8 µM | [10] 15.5 µM | [11] 26.8 µM | [12] 18.1 µM | [13] 19 µM | [14] 16.2 µM | [15] 82.6 µM | [16] 19.2 µM | [17] 13.9 µM

CC(=O)O/N=C(Cl)/C(Cl)=N/OC(C)=O
inactive: [1] > 100 µM | [2] > 100 µM | [3] > 100 µM | [5] > 100 µM | [6] > 100 µM | [7] > 100 µM | [8] > 100 µM | [9] > 100 µM | [10] > 100 µM | [11] > 100 µM | [12] > 100 µM | [13] > 100 µM | [14] > 100 µM | [15] > 100 µM | [16] > 100 µM | [17] > 100 µM

C=CCNC(=S)OCCCCCCCCCC
inactive: [1] 17.7 µM | [3] 24.3 µM | [5] 16.7 µM | [6] 21.7 µM | [7] 20.9 µM | [8] 19.9 µM | [9] 19.1 µM | [10] 18.2 µM | [11] 23.8 µM | [12] 16.9 µM | [13] 13.8 µM | [14] 18.6 µM | [15] 23.6 µM | [16] 11.7 µM | [17] 19.5 µM

CC(=O)OCC1OC(N=[N+]=[N-])C(OC(C)=O)C(OC(C)=O)C1OC1OC(COC(C)=O)C(OC(C)=O)C(OC(C)=O)C1OC(C)=O (stereo not given)
inactive: [1] > 100 µM | [2] > 100 µM | [3] > 100 µM | [4] > 100 µM | [5] > 100 µM | [8] > 100 µM | [9] > 100 µM | [10] > 100 µM | [11] > 100 µM | [13] > 100 µM | [14] > 100 µM | [15] 20.5 µM | [16] 81.5 µM | [17] > 100 µM

O=C(CC1C(=O)Nc2ccccc2[S+]1[O-])Nc1cc(Cl)ccc1Cl (stereo not given)
inactive: [1] > 100 µM | [2] > 100 µM | [5] > 100 µM | [7] > 100 µM | [8] > 100 µM | [9] > 100 µM | [10] > 100 µM | [11] > 100 µM | [12] > 100 µM | [13] > 100 µM | [14] > 100 µM | [15] > 100 µM | [16] > 100 µM | [17] > 100 µM

FC(F)(F)c1cccc2ns[s+]c12
inactive: [1] > 100 µM | [2] > 100 µM | [3] > 100 µM | [4] > 100 µM | [5] > 100 µM | [6] > 100 µM | [7] > 100 µM | [8] > 100 µM | [9] > 100 µM | [10] > 100 µM | [11] > 100 µM | [12] > 100 µM | [13] > 100 µM | [14] > 100 µM | [15] > 100 µM | [16] > 100 µM | [17] > 100 µM

CCC1(O)CC(c2ccccc2)N(C)C(c2ccccc2)C1 (stereo not given)
inactive: [1] > 100 µM | [2] 94 µM | [3] > 100 µM | [4] > 100 µM | [5] > 100 µM | [6] > 100 µM | [8] > 100 µM | [9] > 100 µM | [10] > 100 µM | [11] > 100 µM | [12] 86.9 µM | [13] 94.2 µM | [14] 97.9 µM | [15] > 100 µM | [16] > 100 µM | [17] > 100 µM

CCSc1nc(COC(=O)NC)c(COC(=O)NC)n1C
inactive: [1] > 100 µM | [18] > 100 µM | [2] 40.6 µM | [3] 50.7 µM | [4] > 74.3 µM | [5] > 84.9 µM | [6] 99.3 µM | [7] 51.3 µM | [19] > 100 µM | [8] > 94.4 µM | [9] 49.5 µM | [10] 99.5 µM | [11] > 100 µM | [20] > 82 µM | [12] > 100 µM | [13] > 68.1 µM | [14] > 100 µM | [15] > 100 µM | [16] > 100 µM | [17] 70.1 µM
